One series deals with procollagen type I. As to the kind of experiment: Effect on collagen biosynthesis (procollagen type I ELISA) in human fibroblasts. The format is cell-based. Particulars: 10^−4M, 24 hours, serum-free medium, relative to control group = 100. The procedure:
Human fibroblasts were seeded into 24-well plate at 1×10^5 cells per well and then cultured to 90% of growth.
For each supernatant, procollagen production was measured with procollagen type I ELISA kit.
(In general: In an ELISA, binding on a coated surface is turned into a signal by an enzyme label.)

The next series relates to white guinea pigs. As to the kind of experiment: Phototoxicity test (UVA irradiation). The following applies: for Evaluation (phototoxicity): 1%(w/v) solution, UVA 15 J/cm^2; for Phototoxic index: 50 μl of 1%(w/v) solution, UVA 320~380 nm 15 J/cm^2, observed 24, 48 and 72 hours.
In the next series the test system is elastase. Nature of the series: Inhibition of elastase expression in human fibroblasts (ELISA kit). The format is cell-based. The following applies: 10^−4M, 24 hours, serum-free medium, relative to control group = 100. In short, it runs like this: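 Elastase in fibroblast culture fluid quantified by sandwich ELISA: 3 h capture, then chromophore-conjugated secondary antibody, then colour development, stopped with 1M sulfuric acid. Absorbance read at 405 nm. Expression given as % of the untreated control absorbance, with control set to 100.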

Another series has as its system collagenase. Nature of the series: Inhibition of collagenase expression in human fibroblasts (ELISA kit). The format is cell-based. The following applies: 10^−4M, 24 hours, serum-free medium, relative to control group = 100. In short, it runs like this:
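Serum-starved human fibroblasts were treated for 24 h with 10^−4M test material in serum-free DMEM. Collagenase in the culture fluid was measured by sandwich ELISA read at 405 nm. Values are expressed as % of the untreated control (=100).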

The test system of another series is rabbits. Nature of the series: Primary skin irritation test on animals (Draize P.I.I.). Particulars: depilated back; for P.I.I. (Primary Irritation Index): 0.5 ml of 1% solution in 1,3-butylene glycol:ethanol 7:3, observed 24 or 72 hours later; for Evaluation (skin irritation): 1% solution, according to Draize's P.I.I.
Another series addresses T1, RARγ (Homo sapiens, UniProt P13631).
T1 construct: expressed in transfected cells; host or cells: CV-1 cells (ATCC)
T1 sequence (P13631 1-454): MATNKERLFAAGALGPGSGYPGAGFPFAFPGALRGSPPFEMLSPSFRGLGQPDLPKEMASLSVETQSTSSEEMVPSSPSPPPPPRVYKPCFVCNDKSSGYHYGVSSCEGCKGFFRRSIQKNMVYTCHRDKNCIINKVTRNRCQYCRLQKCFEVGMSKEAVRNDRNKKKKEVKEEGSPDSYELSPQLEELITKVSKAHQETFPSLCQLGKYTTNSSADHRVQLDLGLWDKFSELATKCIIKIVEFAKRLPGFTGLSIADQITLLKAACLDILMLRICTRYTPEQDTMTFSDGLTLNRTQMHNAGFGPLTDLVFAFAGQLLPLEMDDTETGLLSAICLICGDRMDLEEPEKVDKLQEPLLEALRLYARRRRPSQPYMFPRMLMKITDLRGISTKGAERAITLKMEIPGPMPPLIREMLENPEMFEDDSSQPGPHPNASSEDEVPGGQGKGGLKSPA
As to the kind of experiment: RARE-luciferase reporter assay in transfected CV-1 cells (affinity to retinoic acid receptor), RARγ. It counts as cell-based. Particulars: treated 24 hours at final concentration 10^−4M, control group 5000. In short, it runs like this:
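CV-1 cells in DMEM with 2.5% FBS, 5,000 per well, transfected 24 h after seeding with 10 ng pECE-RARα, pECE-RARγ, 100 ng RARE-tk-Luc reporter and 100 ng β-galactosidase vector. Read-out is RARE-driven luciferase.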
Background: A reporter such as luciferase makes a cellular process visible.

For another series, the target named is T2, RARα (Homo sapiens, UniProt P10276).
T2 construct: expressed in transfected cells; host or cells: CV-1 cells (ATCC)
T2 sequence (P10276 1-462): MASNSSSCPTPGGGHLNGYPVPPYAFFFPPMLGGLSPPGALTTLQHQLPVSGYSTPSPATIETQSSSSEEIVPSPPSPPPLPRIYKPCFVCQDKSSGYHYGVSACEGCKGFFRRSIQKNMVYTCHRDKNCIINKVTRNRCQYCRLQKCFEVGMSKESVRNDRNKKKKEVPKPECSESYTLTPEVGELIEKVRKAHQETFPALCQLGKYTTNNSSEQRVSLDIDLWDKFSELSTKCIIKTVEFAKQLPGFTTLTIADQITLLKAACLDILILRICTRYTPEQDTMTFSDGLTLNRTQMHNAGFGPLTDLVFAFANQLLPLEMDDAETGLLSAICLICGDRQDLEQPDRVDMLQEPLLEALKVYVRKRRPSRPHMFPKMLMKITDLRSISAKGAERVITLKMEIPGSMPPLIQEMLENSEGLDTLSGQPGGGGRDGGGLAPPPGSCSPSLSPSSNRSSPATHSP
Nature of the series: RARE-luciferase reporter assay in transfected CV-1 cells (affinity to retinoic acid receptor), RARα. The following applies: treated 24 hours at final concentration 10^−4M, control group 1000. It counts as cell-based. In short, it runs like this:
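CV-1 cells co-transfected with pECE-RARα or pECE-RARγ, RARE-tk-Luc reporter and β-galactosidase vector. Starting 24 h post-transfection, cells were treated for 24 h with compounds at a final 10^−4M; luciferase reporter read-out.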

Experimental for rabbits: Test was performed using fifty-six (56) of healthy male rabbits whose backs were depilated. […] 0.5ml of the test sample solution was applied to the right site of 2.5 cm×2.5 cm region on each of the depilated back. Left site with no sample treated was compared as a control. 24 hours or 72 hours later, skin abnormality such as erythema, crust and edema was observed.
Based on the score of skin response, skin irritation was evaluated according to Draize's P.I.I.(Primary Irritation Index) and compared with retinoic acid.

Regarding `O=C(NO)c1ccc(C(=O)NC23CC4CC(CC(C4)C2)C3)cc1` [Example 43, [4-(N-hydroxycarbamoyl)phenyl]-N-adamantyl carboxyamide], the “Collagen biosynthesis (%)” value in the series on procollagen type I turned out to be 130%. In addition, in the series with white guinea pigs, the “Evaluation (phototoxicity)” value was “No phototoxicity (lower value than 0.5, criterion value to be estimated as no phototoxicity)” and the Phototoxic index is reported as 0. In addition, the “Elastase expression (%)” value in the series with elastase worked out at 70%. Besides, the “Collagenase expression (%)” value in the series on collagenase is reported as 77%. Besides, in the series on rabbits, the “P.I.I. (Primary Irritation Index)” value is given as 0.456 and the “Evaluation (skin irritation)” value is recorded as “No irritation”. In addition, the “Luciferase activity RARγ” value at RARγ is on record as 10600. Besides, at RARα, the “Luciferase activity RARα” value came to 18900.
As to `Cc1ccc(N(C)C(=O)c2ccc(C(=O)NO)cc2)cc1` [Example 46, [4-(N-hydroxycarbamoyl)phenyl]-N-methyl-N-[4-methylphenyl]carboxyamide], the “Collagen biosynthesis (%)” value with procollagen type I was determined as 121%. Further, in the series with white guinea pigs, the “Evaluation (phototoxicity)” value is given as “No phototoxicity (lower value than 0.5, criterion value to be estimated as no phototoxicity)” and the Phototoxic index was 0. The “Elastase expression (%)” value in the series on elastase is 80%. Further, the “Collagenase expression (%)” value with collagenase is recorded as 83%. Besides, in the series on rabbits, the “P.I.I. (Primary Irritation Index)” value was 0.345 and the “Evaluation (skin irritation)” value is listed as “No irritation”. Further, the “Luciferase activity RARγ” value on RARγ is 11123. Moreover, the “Luciferase activity RARα” value on RARα worked out at 13200.
In the case of `Cc1cccc(N(C)C(=O)c2ccc(C(=O)NO)cc2)c1` [Example 47, [4-(N-hydroxycarbamoyl)phenyl]-N-methyl-N-[3-methylphenyl]carboxyamide], in the series with procollagen type I, the “Collagen biosynthesis (%)” value amounted to 112%. Besides, in the series with white guinea pigs, the “Evaluation (phototoxicity)” value is given as “No phototoxicity (lower value than 0.5, criterion value to be estimated as no phototoxicity)” and the Phototoxic index is reported as 0. Further, in the series on elastase, the “Elastase expression (%)” value worked out at 83%. The “Collagenase expression (%)” value with collagenase turned out to be 79%. In addition, in the series with rabbits, the “P.I.I. (Primary Irritation Index)” value came out at 0.367 and the “Evaluation (skin irritation)” value was “No irritation”. Besides, the “Luciferase activity RARγ” value on RARγ worked out at 11700. Also, the “Luciferase activity RARα” value at RARα came out at 12200.
As for `CCc1ccc(N(C)C(=O)c2ccc(C(=O)NO)cc2)cc1` [Example 48, [4-(N-hydroxycarbamoyl)phenyl]-N-methyl-N-[4-ethylphenyl]carboxyamide], the “Collagen biosynthesis (%)” value with procollagen type I is listed as 107%. Further, in the series with white guinea pigs, the “Evaluation (phototoxicity)” value was “No phototoxicity (lower value than 0.5, criterion value to be estimated as no phototoxicity)” and the Phototoxic index turned out to be 0. For the same compound, in the series on elastase, the “Elastase expression (%)” value stood at 87%. Also, the “Collagenase expression (%)” value in the series with collagenase came out at 87%. In addition, in the series on rabbits, the “P.I.I. (Primary Irritation Index)” value worked out at 0.468 and the “Evaluation (skin irritation)” value is listed as “No irritation”. Moreover, the “Luciferase activity RARγ” value at RARγ is 11200. In addition, the “Luciferase activity RARα” value at RARα is recorded as 15500.
As to `CCCc1ccc(N(C)C(=O)c2ccc(C(=O)NO)cc2)cc1` [Example 49, [4-(N-hydroxycarbamoyl)phenyl]-N-methyl-N-[4-propylphenyl]carboxyamide], the “Collagen biosynthesis (%)” value in the series with procollagen type I came out at 109%. In the series on white guinea pigs, the “Evaluation (phototoxicity)” value is given as “No phototoxicity (lower value than 0.5, criterion value to be estimated as no phototoxicity)” and the Phototoxic index is recorded as 0. In addition, the “Elastase expression (%)” value with elastase was 87%. For the same compound, the “Collagenase expression (%)” value in the series on collagenase turned out to be 81%. In the series on rabbits, the “P.I.I. (Primary Irritation Index)” value stood at 0.342 and the “Evaluation (skin irritation)” value is “No irritation”. Also, the “Luciferase activity RARγ” value on RARγ stood at 12100. On RARα, the “Luciferase activity RARα” value is on record as 14500.
For `CC(C)c1ccc(N(C)C(=O)c2ccc(C(=O)NO)cc2)cc1` [Example 50, [4-(N-hydroxycarbamoyl)phenyl]-N-methyl-N-[4-isopropylphenyl]carboxyamide], the “Collagen biosynthesis (%)” value in the series on procollagen type I is on record as 110%. In the series with white guinea pigs, the “Evaluation (phototoxicity)” value is on record as “No phototoxicity (lower value than 0.5, criterion value to be estimated as no phototoxicity)” and the Phototoxic index stood at 0. Also, the “Elastase expression (%)” value in the series with elastase is reported as 78%. The “Collagenase expression (%)” value with collagenase is reported as 80%. For the same compound, in the series with rabbits, the “P.I.I. (Primary Irritation Index)” value came to 0.234 and the “Evaluation (skin irritation)” value was “No irritation”. Moreover, the “Luciferase activity RARγ” value on RARγ is on record as 11212. In addition, the “Luciferase activity RARα” value on RARα is 12300.
Consider `CCCCc1ccc(N(C)C(=O)c2ccc(C(=O)NO)cc2)cc1` [Example 51, [4-(N-hydroxycarbamoyl)phenyl]-N-methyl-N-[4-butylphenyl]carboxyamide], for which the “Collagen biosynthesis (%)” value with procollagen type I is reported as 121%. In addition, in the series with white guinea pigs, the “Evaluation (phototoxicity)” value was “No phototoxicity (lower value than 0.5, criterion value to be estimated as no phototoxicity)” and the Phototoxic index is listed as 0. For the same compound, the “Elastase expression (%)” value with elastase turned out to be 77%. Moreover, the “Collagenase expression (%)” value with collagenase is 76%. Also, in the series on rabbits, the “P.I.I. (Primary Irritation Index)” value is 0.331 and the “Evaluation (skin irritation)” value is on record as “No irritation”. At RARγ, the “Luciferase activity RARγ” value turned out to be 12210. Also, the “Luciferase activity RARα” value on RARα was 13400.
As for `CN(C(=O)c1ccc(C(=O)NO)cc1)c1ccc(C(C)(C)C)cc1` [Example 52, [4-(N-hydroxycarbamoyl)phenyl]-N-methyl-N-[4-tert-butylphenyl]carboxamide], the “Collagen biosynthesis (%)” value with procollagen type I is on record as 127%. Besides, in the series with white guinea pigs, the “Evaluation (phototoxicity)” value is given as “No phototoxicity (lower value than 0.5, criterion value to be estimated as no phototoxicity)” and the Phototoxic index is 0. Besides, the “Elastase expression (%)” value in the series with elastase is reported as 87%. Moreover, the “Collagenase expression (%)” value in the series with collagenase is recorded as 77%. For the same compound, in the series on rabbits, the “P.I.I. (Primary Irritation Index)” value is 0.412 and the “Evaluation (skin irritation)” value is on record as “No irritation”. Moreover, at RARγ, the “Luciferase activity RARγ” value came to 12130. Besides, on RARα, the “Luciferase activity RARα” value is listed as 12400.
On to `Cc1ccc(N(C)C(=O)c2ccc(C(=O)NO)cc2)cc1C` [Example 53, [4-(N-hydroxycarbamoyl)phenyl]-N-methyl-N-[3,4-dimethylphenyl]carboxyamide], for which, in the series with procollagen type I, the “Collagen biosynthesis (%)” value was determined as 122%. In the series on white guinea pigs, the “Evaluation (phototoxicity)” value is reported as “No phototoxicity (lower value than 0.5, criterion value to be estimated as no phototoxicity)” and the Phototoxic index was determined as 0. Moreover, in the series with elastase, the “Elastase expression (%)” value was 80%. Further, the “Collagenase expression (%)” value in the series with collagenase is 75%. Also, in the series with rabbits, the “P.I.I. (Primary Irritation Index)” value is reported as 0.321 and the “Evaluation (skin irritation)” value was “No irritation”. The “Luciferase activity RARγ” value on RARγ was determined as 12300. On RARα, the “Luciferase activity RARα” value is reported as 14500.
For the compound `CN(C(=O)c1ccc(C(=O)NO)cc1)C12CC3CC(CC(C3)C1)C2` [Example 54, [4-(N-hydroxycarbamoyl)phenyl]-N-adamantyl-N-methylcarboxyamide], the “Collagen biosynthesis (%)” value with procollagen type I worked out at 121%. Besides, in the series with white guinea pigs, the “Evaluation (phototoxicity)” value was “No phototoxicity (lower value than 0.5, criterion value to be estimated as no phototoxicity)” and the Phototoxic index was determined as 0. Further, the “Elastase expression (%)” value in the series with elastase is on record as 67%. The “Collagenase expression (%)” value in the series with collagenase worked out at 83%. In the series on rabbits, the “P.I.I. (Primary Irritation Index)” value worked out at 0.567 and the “Evaluation (skin irritation)” value is on record as “No irritation”. In addition, on RARγ, the “Luciferase activity RARγ” value is 11000. Besides, at RARα, the “Luciferase activity RARα” value turned out to be 22500.

For the origin of these results see patent US7282522B2, “Hydroxamic acid derivatives and the method for preparing thereof” (Amorepacific Corporation, priority 2003, dated 2007).
